Test system: fear memory in mice
Experiment: Contextual fear conditioning, freezing behavior
Type: in vivo
Experimental: Mice (n=8, by condition) were treated with vehicle or cotinine (1 and 5 mg/kg/day) for 8 days and then subjected to Fear conditioning training as described. After 24 hours (h) mice were tested for freezing behavior when re-exposed to the same context (the chamber) every day for […].
To study the effect of cotinine on contextual fear memory, we pretreated mice with vehicle or cotinine at 1 and 5 mg/kg/day for 8 days. After this time, mice were trained for contextual fear conditioning (FC). Briefly, mice were trained to associate the context (the chamber) with an aversive unconditioned stimulus (1 mA foot shock for 2 seconds). After the FC training, the mice were re-exposed to the context every day for 7 consecutive days. The mice were treated daily with vehicle or cotinine at 1 and 5 mg/kg during the FC training and re-exposure to the context. The fear memory of the mice expressed as freezing behavior was assessed each day after re-exposure to the context. The fear memory after 24 h of the FC training is considered a measure of retention of the fear memory. The reduction of fear memory expressed as a reduction in the freezing behavior after the retention trial is evaluated as the extinction of the fear memory.

CN1C(=O)CC[C@H]1c1cccnc1 [cotinine]
freezing in the retention test versus vehicle (cotinine 1 mg/kg/day, 24 h after FC training, p=0.0191): significantly lower percentage of freezing | freezing in the extinction test versus vehicle (cotinine 5 mg/kg, day 6 of re-exposure, p=0.0218): significantly lower percentage of freezing

— patent publication US10238641B2, “Materials and methods for diagnosis, prevention and/or treatment of stress disorders and conditions associated with A-beta peptide aggregation” (The United States of America as represented by the …, priority 2008, dated 2019)
